Reference: patent US9890117B2, “Benzamide compounds and related methods of use” (Northwestern University, priority 2012, dated 2018)

Assays:
SIRT2 = target: T1, SIRT2 (Homo sapiens, UniProt Q8IXJ6); experiment: Fluor-de-Lys biochemical sirtuin deacetylation assay, SIRT2; conditions: 10 μM
T1 construct: recombinant active enzymes SIRT1, SIRT2, and the catalytically active fragment of SIRT3
T1 sequence (Q8IXJ6 1-389): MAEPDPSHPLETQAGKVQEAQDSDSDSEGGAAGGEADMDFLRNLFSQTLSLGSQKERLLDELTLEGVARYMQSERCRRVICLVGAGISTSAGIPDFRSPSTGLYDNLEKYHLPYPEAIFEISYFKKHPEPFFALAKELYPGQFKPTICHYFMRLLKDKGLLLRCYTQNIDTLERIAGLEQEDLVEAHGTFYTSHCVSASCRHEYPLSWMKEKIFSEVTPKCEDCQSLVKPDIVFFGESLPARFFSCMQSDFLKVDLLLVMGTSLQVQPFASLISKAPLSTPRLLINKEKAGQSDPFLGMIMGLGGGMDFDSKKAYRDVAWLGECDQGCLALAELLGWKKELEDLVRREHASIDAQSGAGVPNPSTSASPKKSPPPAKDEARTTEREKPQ

SMILES | inhibition at 10 µM (SIRT2) [%] | melting point
CCCN(CCC)S(=O)(=O)c1cccc(C(=O)Nc2cccc(Br)c2)c1 [Compound 203f, N-(3-bromophenyl)-3-(N,N-dipropylsulfamoyl)benzamide] | 60 | 105 to 107 °C
CN(c1ccc(CN)cc1)S(=O)(=O)c1cccc(C(=O)Nc2ccc(C#N)cc2)c1.Cl [Compound 203Af, 3-(N-(4-(aminomethyl)phenyl)-N-methylsulfamoyl)-N-(4-cyanophenyl)benzamide hydrochloride] | 15 | 169 to 171 °C
CN(C(=O)c1cccc(S(=O)(=O)N(C)c2ccc([S+](C)[O-])cc2)c1)c1ccc(Cl)cc1F (centres unmarked) [Compound 203Ag, N-(4-chloro-2-fluorophenyl)-N-methyl-3-(N-methyl-N-(4-(methylsulfinyl)phenyl)-sulfamoyl)benzamide] | 14 | 104 to 106 °C
CN(c1ccc(S(C)(=O)=O)cc1)S(=O)(=O)c1cccc(C(=O)Nc2ccc(C#N)cc2F)c1 [Compound 203Ai, N-(4-cyano-2-fluorophenyl)-3-(N-methyl-N-(4-(methylsulfonyl)phenyl)-sulfamoyl)benzamide] | 16 | 188 to 189 °C
CN(c1ccc(Cl)cc1)S(=O)(=O)c1cccc(C(=O)Nc2ccc(Br)cc2F)c1 [Compound 203w, N-(4-bromo-2-fluorophenyl)-3-(N-(4-chlorophenyl)-N-methylsulfamoyl)benzamide] | 31 | 126 to 127 °C
Cc1cc(F)ccc1N(C)C(=O)c1cccc(S(=O)(=O)N(C)c2ccc(Br)cc2)c1 [Compound 203m, 3-(N-(4-bromophenyl)-N-methylsulfamoyl)-N-(4-fluoro-2-methylphenyl)-N-methylbenzamide] | 28 | 104 to 105 °C
N#Cc1ccc(NC(=O)c2cccc(S(=O)(=O)N(c3ccc(Cl)cc3)C3CC3)c2)cc1 [Compound 203Av, 3-(N-(4-chlorophenyl)-N-cyclopropylsulfamoyl)-N-(4-cyanophenyl)benzamide] | 51 | 180 to 182 °C
CN(c1ccc(Cl)cc1)S(=O)(=O)c1cccc(C(=O)Nc2ccc(Cl)cc2C#N)c1 [Compound 203x, N-(4-chloro-2-cyanophenyl)-3-(N-(4-chlorophenyl)-N-methylsulfamoyl)benzamide] | 15 | 157 to 158 °C
CCOc1ccc(N(CC)S(=O)(=O)c2cccc(C(=O)Nc3ccc(C#N)cc3)c2)cc1 [Compound 203Az, N-(4-cyanophenyl)-3-(N-(4-ethoxyphenyl)-N-ethylsulfamoyl)benzamide] | 59 | 168 to 169 °C
CN(c1ccc(Br)cc1)S(=O)(=O)c1cccc(C(=O)Nc2ccc(F)cc2F)c1 [Compound 203u, 3-(N-(4-bromophenyl)-N-methylsulfamoyl)-N-(2,4-difluorophenyl)benzamide] | 22 | 119 to 120 °C
Cc1cc(F)ccc1NC(=O)c1cccc(S(=O)(=O)N(C)c2ccc(Br)cc2)c1 [Compound 203o, 3-(N-(4-bromophenyl)-N-methylsulfamoyl)-N-(4-fluoro-2-methylphenyl)benzamide] | 14 | 163 to 165 °C
CN(c1ccc(S(C)(=O)=O)cc1)S(=O)(=O)c1cc(C(=O)Nc2ccc(C#N)cc2)ccn1 [Compound 203As, N-(4-cyanophenyl)-2-(N-methyl-N-(4-(methylsulfonyl)phenyl)sulfamoyl)-isonicotinamide] | 33 | 224 to 226 °C
CN(C(=O)c1cccc(S(=O)(=O)N(C)c2ccc([S+](C)[O-])cc2)c1)c1ccc(C#N)cc1F (centres unmarked) [Compound 203Al, N-(4-cyano-2-fluorophenyl)-N-methyl-3-(N-methyl-N-(4-(methylsulfinyl)phenyl)-sulfamoyl)benzamide] | 0 | 148 to 150 °C
CN(c1ccc([S+](C)[O-])cc1)S(=O)(=O)c1cc(C(=O)Nc2ccc(Cl)cc2F)ccn1 (centres unmarked) [Compound 203Aq, N-(4-chloro-2-fluorophenyl)-2-(N-methyl-N-(4-(methylsulfinyl)phenyl)sulfamoyl)-isonicotinamide] | 14 | 178 to 179 °C
CN(c1ccc([S+](C)[O-])cc1)S(=O)(=O)c1cccc(C(=O)Nc2ccc(C#N)cc2F)c1 (centres unmarked) [Compound 203Aj, N-(4-cyano-2-fluorophenyl)-3-(N-methyl-N-(4-(methylsulfinyl)phenyl)sulfamoyl)-benzamide] | 10 | 192 to 194 °C

Results, then the molecule that gave them:

inhibition at 10 µM (SIRT2) [%] | melting point | SMILES
57 | 185 to 187 °C | N#Cc1ccc(NC(=O)c2cccc(OCc3cc(F)cc(F)c3)c2)cc1 [Compound 216Ae, N-(4-cyanophenyl)-3-((3,5-difluorobenzyl)oxy)benzamide]
12 | 179 to 181 °C | CC(O)c1ccc(C(C)Oc2cncc(C(=O)Nc3ccc(C#N)cc3)c2)cc1 (centres unmarked) [Compound 216Af, N-(4-cyanophenyl)-5-(1-(4-(1-hydroxyethyl)phenyl)ethoxy)nicotinamide]
28 | 187 to 189 °C | CN(c1ccc(Cl)cc1)S(=O)(=O)c1cccc(NC(=O)c2ccc(Br)cc2)c1 [Compound 207a, 4-bromo-N-(3-(N-(4-chlorophenyl)-N-methylsulfamoyl)phenyl)benzamide]
63 | 161 to 162 °C | CSc1ccc(CSc2cccc(C(=O)Nc3ccc(C#N)cn3)c2)cc1 [Compound 211a, N-(5-cyanopyridin-2-yl)-3-((4-(methylthio)benzyl)thio)benzamide]
39 | 209 to 210 °C | CS(=O)(=O)c1ccc(COc2cccc(C(=O)Nc3ccc(C#N)cc3)c2)cc1 [Compound 216k, N-(4-cyanophenyl)-3-((4-(methylsulfonyl)benzyl)oxy)benzamide]
26 | 213 to 215 °C (dec.) | CN(c1ccc(S(C)(=O)=O)cc1)S(=O)(=O)c1cccc(NC(=O)c2ccc(S(C)(=O)=O)cc2)c1 [Compound 207d, N-(3-(N-methyl-N-(4-(methylsulfonyl)phenyl)sulfamoyl)phenyl)-4-(methylsulfonyl)benzamide]
56 | 149 to 150 °C | N#Cc1ccc(NC(=O)c2cccc(OCc3cccc(F)c3F)c2)cc1 [Compound 216Aa, N-(4-cyanophenyl)-3-((2,3-difluorobenzyl)oxy)benzamide]
56 | 138 to 139 °C | N#Cc1ccc(NC(=O)c2cccc(OCc3ccc(OC(F)(F)F)cc3)c2)cc1 [Compound 216m, N-(4-cyanophenyl)-3-((4-(trifluoromethoxy)benzyl)oxy)benzamide]
50 | 135 to 136 °C | COc1ccc(COc2cccc(C(=O)Nc3ccc([S+](C)[O-])cc3)c2)cc1 (centres unmarked) [Compound 216h, 3-((4-methoxybenzyl)oxy)-N-(4-(methylsulfinyl)phenyl)benzamide]
74 | 160 to 162 °C | N#Cc1ccc(NC(=O)c2ccnc(SCc3ccc(F)cc3)c2)cc1 [Compound 211e, N-(4-cyanophenyl)-2-((4-fluorobenzyl)thio)isonicotinamide]
58 | 142 to 143 °C | N#Cc1ccc(NC(=O)c2cccc(OCc3cccc(F)c3)c2)cc1 [Compound 216Ad, N-(4-cyanophenyl)-3-((3-fluorobenzyl)oxy)benzamide]
0 | 266 to 268 °C (dec.) | N#Cc1ccc(COc2cncc(C(=O)Nc3ccc(C#N)cc3)c2)cc1 [Compound 216t, 5-((4-cyanobenzyl)oxy)-N-(4-cyanophenyl)nicotinamide]
69 | 151 to 152 °C | C[C@@H](Oc1cncc(C(=O)Nc2ccc(C#N)cc2)c1)c1ccc(F)cc1 [Compound 216r, (R)—N-(4-cyanophenyl)-5-(1-(4-fluorophenyl)ethoxy)nicotinamide]
15 | 170 to 171 °C | N#Cc1ccc(NC(=O)c2cccc(OCc3ccc(F)cc3)c2)nc1 [Compound 216i, N-(5-cyanopyridin-2-yl)-3-((4-fluorobenzyl)oxy)benzamide]
34 | 168 to 169 °C | N#Cc1ccc(NC(=O)c2cccc(OCc3ccc(Cl)cn3)c2)cc1 [Compound 216n, 3-((5-chloropyridin-2-yl)methoxy)-N-(4-cyanophenyl)benzamide]
36 | 173 to 174 °C | COc1ccc(COc2cccc(C(=O)Nc3ccc(S(C)(=O)=O)cc3)c2)cc1 [Compound 216f, 3-((4-methoxybenzyl)oxy)-N-(4-(methylsulfonyl)phenyl)benzamide]
67 | 167 to 168 °C | N#Cc1ccc(NC(=O)c2cccc(OCc3ccc(C(F)(F)F)cc3)c2)cc1 [Compound 216j, N-(4-cyanophenyl)-3-((4-(trifluoromethyl)benzyl)oxy)benzamide]
15 | 199 to 201 °C | N#Cc1ccc(COc2cc(O)cc(C(=O)Nc3ccc(C#N)cc3)c2)cc1 [Compound 216w, 3-((4-cyanobenzyl)oxy)-N-(4-cyanophenyl)-5-hydroxybenzamide]
75 | 176 to 177 °C | CN(Cc1ccc(F)cc1)c1cccc(C(=O)Nc2ccc(C#N)cc2)c1 [Compound 221c, N-(4-cyanophenyl)-3-((4-fluorobenzyl)(methyl)amino)benzamide]
